The test has as its target SETDB1Full-length (Homo sapiens, UniProt Q15047). The test is described as follows: Filter-paper methyltransferase assay, SETDB1. Format: biochemical.

Broadly, the IC50 is the concentration at which inhibition is half-maximal. Lower therefore signals inhibition by little substance.

As to `Nc1ncnc2c1ncn2[C@@H]1O[C@H](C[C@@H](N)CC[C@H](N)C(=O)O)[C@@H](O)[C@H]1O` [Sinefungin, sinefungin, reference compound], half-maximal inhibition (IC50) required 8 µM.

Values taken from patent US20160052955A1 (SLOAN-KETTERING INSTITUTE FOR CANCER RESEARCH, priority 2013, published 2016).
